Organism: Rattus norvegicus
Assay: Open TG-GATES - Regimen: Single
Type: toxicity, organism-based, Sprague-Dawley
Design: regimen Single, gender Male, age 6 weeks
Settings: in vivo, po, 400 mg/kg, route gavage, dose level High; for Bas / Eos / Fbg / Hb / Ht / Lym / MCH / MCHC / Mono / Neu / PT / Plat / RBC / Ret / WBC: tissue Blood; for KIDNEY_L / KIDNEY_R / KIDNEY_TOTAL: tissue Kidney; for LIVER: tissue Liver

SMILES: CCC(C)(C)C(=O)O[C@H]1C[C@@H](C)C=C2C=C[C@H](C)[C@H](CC[C@@H]3C[C@@H](O)CC(=O)O3)[C@H]21 [SIMVASTATIN]
- Bas (3 h): 0%
- Eos (3 h): 0.8%
- Fbg (3 h): 211.2 mg/dL
- Hb (3 h): 12.2 g/dL
- Ht (3 h): 37.3%
- Lym (3 h): 80.4%
- MCH (3 h): 21.5 pg
- MCHC (3 h): 32.8%
- Mono (3 h): 8.4%
- Neu (3 h): 10.8%
- PT (3 h): 11.3 s
- Plat (3 h): 110.1 x10_4/uL
- RBC (3 h): 569 x10_4/ul
- Ret (3 h): 10.9%
- WBC (3 h): 116.1 x10_2/uL
- KIDNEY_L (3 h): 1 g
- KIDNEY_R (3 h): 1 g
- KIDNEY_TOTAL (3 h): 2 g
- LIVER (3 h): 9.3 g
- ALP (3 h, tissue Plasma): 914.4 IU/L
- ALT (3 h, tissue Plasma): 30.8 IU/L
- AST (3 h, tissue Plasma): 61.6 IU/L
- BUN (3 h, tissue Plasma): 11.8 mg/dL
- CRE (3 h, tissue Plasma): 0.5 mg/dL
- DBIL (3 h, tissue Plasma): 0.062 mg/dL
- IP (3 h, tissue Plasma): 8.3 mg/dL
- K (3 h, tissue Plasma): 4.7 meq/L
- LDH (3 h, tissue Plasma): 107.8 IU/L
- Na (3 h, tissue Plasma): 136.8 meq/L
- PL (3 h, tissue Plasma): 131.4 mg/dL
- RALB (3 h, tissue Plasma): 3.6 g/dL
- TBIL (3 h, tissue Plasma): 0.3 mg/dL
- TC (3 h, tissue Plasma): 74.2 mg/dL
- TG (3 h, tissue Plasma): 37 mg/dL
- TP (3 h, tissue Plasma): 5.6 g/dL
- gamma-GTP (3 h, tissue Plasma): 1.2 IU/L
- TERMINAL_BW (6 h): 205 g
- Bas (6 h): 0%
- Eos (6 h): 1%
- Fbg (6 h): 209.4 mg/dL
- Hb (6 h): 12.5 g/dL
- Ht (6 h): 38.1%
- Lym (6 h): 80.8%
- MCH (6 h): 21.6 pg
- MCHC (6 h): 32.7%
- Mono (6 h): 4.2%
- Neu (6 h): 14.6%
- PT (6 h): 12.1 s
- Plat (6 h): 109.4 x10_4/uL
- RBC (6 h): 578.2 x10_4/ul
- Ret (6 h): 11%
- KIDNEY_L (6 h): 1 g
- KIDNEY_R (6 h): 1 g
- KIDNEY_TOTAL (6 h): 1.9 g
- LIVER (6 h): 8.8 g
- ALP (6 h, tissue Plasma): 979 IU/L
- ALT (6 h, tissue Plasma): 29.4 IU/L
- AST (6 h, tissue Plasma): 60.2 IU/L
- BUN (6 h, tissue Plasma): 9.8 mg/dL
- CRE (6 h, tissue Plasma): 0.5 mg/dL
- DBIL (6 h, tissue Plasma): 0.078 mg/dL
- IP (6 h, tissue Plasma): 9.6 mg/dL
- K (6 h, tissue Plasma): 4.9 meq/L
- LDH (6 h, tissue Plasma): 86 IU/L
- Na (6 h, tissue Plasma): 137.2 meq/L
- PL (6 h, tissue Plasma): 108 mg/dL
- RALB (6 h, tissue Plasma): 3.4 g/dL
- TBIL (6 h, tissue Plasma): 0.4 mg/dL
- TC (6 h, tissue Plasma): 59 mg/dL
- TG (6 h, tissue Plasma): 41.2 mg/dL
- TP (6 h, tissue Plasma): 5.5 g/dL
- gamma-GTP (6 h, tissue Plasma): 1.4 IU/L
- TERMINAL_BW (9 h): 198.2 g
- Bas (9 h): 0%
- Eos (9 h): 0.6%
- Fbg (9 h): 204.6 mg/dL
- Hb (9 h): 12.5 g/dL
- Ht (9 h): 37.7%
- Lym (9 h): 80.8%
- MCHC (9 h): 33.1%
- Mono (9 h): 3.2%
- Neu (9 h): 15.2%
- PT (9 h): 12.6 s
- Plat (9 h): 110.7 x10_4/uL
- RBC (9 h): 576.4 x10_4/ul
- Ret (9 h): 9.6%
- WBC (9 h): 131.2 x10_2/uL
- KIDNEY_L (9 h): 0.9 g
- KIDNEY_R (9 h): 0.9 g
- KIDNEY_TOTAL (9 h): 1.9 g
- LIVER (9 h): 7.8 g
- ALP (9 h, tissue Plasma): 778 IU/L
- ALT (9 h, tissue Plasma): 30.2 IU/L
- AST (9 h, tissue Plasma): 61.2 IU/L
- BUN (9 h, tissue Plasma): 10.2 mg/dL
- CRE (9 h, tissue Plasma): 0.6 mg/dL
- DBIL (9 h, tissue Plasma): 0.066 mg/dL
- GLC (9 h, tissue Plasma): 209 mg/dL
- K (9 h, tissue Plasma): 5.2 meq/L
- LDH (9 h, tissue Plasma): 86 IU/L
- Na (9 h, tissue Plasma): 137.4 meq/L
- PL (9 h, tissue Plasma): 100 mg/dL
- RALB (9 h, tissue Plasma): 3.5 g/dL
- TBIL (9 h, tissue Plasma): 0.3 mg/dL
- TC (9 h, tissue Plasma): 56.8 mg/dL
- TG (9 h, tissue Plasma): 24 mg/dL
- TP (9 h, tissue Plasma): 5.1 g/dL
- gamma-GTP (9 h, tissue Plasma): 1.2 IU/L
- TERMINAL_BW (24 h): 201.5 g
- Bas (24 h): 0%
- Eos (24 h): 0.8%
- Fbg (24 h): 218.6 mg/dL
- Hb (24 h): 13.9 g/dL
- Ht (24 h): 42.3%
- Lym (24 h): 80.6%
- MCHC (24 h): 32.8%
- Mono (24 h): 4.6%
- Neu (24 h): 14.4%
- PT (24 h): 11.3 s
- Plat (24 h): 125.3 x10_4/uL
- RBC (24 h): 647.8 x10_4/ul
- Ret (24 h): 7.9%
- WBC (24 h): 86.8 x10_2/uL
- KIDNEY_L (24 h): 1 g
- KIDNEY_R (24 h): 1 g
- KIDNEY_TOTAL (24 h): 1.9 g
- LIVER (24 h): 9.9 g
- ALP (24 h, tissue Plasma): 760.8 IU/L
- ALT (24 h, tissue Plasma): 99 IU/L
- AST (24 h, tissue Plasma): 81.6 IU/L
- BUN (24 h, tissue Plasma): 15.2 mg/dL
- CRE (24 h, tissue Plasma): 0.6 mg/dL
- DBIL (24 h, tissue Plasma): 0.07 mg/dL
- IP (24 h, tissue Plasma): 7.1 mg/dL
- K (24 h, tissue Plasma): 5.2 meq/L
- LDH (24 h, tissue Plasma): 117.6 IU/L
- Na (24 h, tissue Plasma): 137.4 meq/L
- PL (24 h, tissue Plasma): 93.6 mg/dL
- RALB (24 h, tissue Plasma): 3.8 g/dL
- TBIL (24 h, tissue Plasma): 0.4 mg/dL
- TC (24 h, tissue Plasma): 53.6 mg/dL
- TG (24 h, tissue Plasma): 38.4 mg/dL
- TP (24 h, tissue Plasma): 5.4 g/dL
- gamma-GTP (24 h, tissue Plasma): 1.4 IU/L

From ChEMBL document CHEMBL3885861, “Open TG-GATES”
